According to patent US6518041B1, “Hormone response element that binds an androgen and progesterone receptor” (Schering Aktiengesellschaft, priority 1998, dated 2003):

Key:
androgen receptor [1] = biological target: T1, androgen receptor (Homo sapiens, UniProt P10275); test: ARE17 luciferase reporter test system in PC-3/AR cells; type: cell-based
T1 construct: expressed in transfected cells; host or cells: PC-3 cells stably transformed with an androgen receptor expression vector (PC-3/AR)
T1 sequence (P10275 1-920): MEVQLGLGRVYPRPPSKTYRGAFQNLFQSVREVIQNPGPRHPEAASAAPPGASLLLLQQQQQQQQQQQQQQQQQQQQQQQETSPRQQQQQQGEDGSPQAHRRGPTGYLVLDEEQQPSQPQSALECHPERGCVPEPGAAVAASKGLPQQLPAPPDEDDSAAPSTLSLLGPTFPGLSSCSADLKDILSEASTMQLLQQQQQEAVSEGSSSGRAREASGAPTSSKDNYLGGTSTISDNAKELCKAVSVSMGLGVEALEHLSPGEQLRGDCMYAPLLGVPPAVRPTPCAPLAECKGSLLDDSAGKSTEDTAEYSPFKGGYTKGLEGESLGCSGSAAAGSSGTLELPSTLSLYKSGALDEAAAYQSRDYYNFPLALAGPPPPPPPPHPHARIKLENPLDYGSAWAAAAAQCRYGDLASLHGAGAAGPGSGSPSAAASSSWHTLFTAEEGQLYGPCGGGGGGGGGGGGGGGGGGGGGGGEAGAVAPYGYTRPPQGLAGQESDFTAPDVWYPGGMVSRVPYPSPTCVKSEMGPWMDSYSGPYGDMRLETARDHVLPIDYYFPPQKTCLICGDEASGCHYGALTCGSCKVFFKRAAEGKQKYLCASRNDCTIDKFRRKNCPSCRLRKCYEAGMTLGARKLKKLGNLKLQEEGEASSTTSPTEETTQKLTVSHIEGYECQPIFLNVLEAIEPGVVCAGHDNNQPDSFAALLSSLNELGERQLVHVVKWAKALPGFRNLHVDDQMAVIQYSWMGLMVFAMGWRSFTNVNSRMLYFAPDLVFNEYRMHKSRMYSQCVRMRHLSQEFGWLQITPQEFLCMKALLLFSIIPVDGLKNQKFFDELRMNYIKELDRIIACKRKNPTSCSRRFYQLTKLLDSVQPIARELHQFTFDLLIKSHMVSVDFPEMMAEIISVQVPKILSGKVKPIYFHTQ
Text: Preferred is the use of the luciferase reporter gene and of PC-3 cells that have been transformed in advance in a stable manner with an expression vector for the androgen receptor (PC-3/AR cells) or in a transient parallel manner. In addition, the use of the TK minimal promoter is preferred. […] A progestin is a synthetic progesterone analog.
(§1) Test systems were compared that contained either an HRE according to the invention that corresponds to Seq. ID No. 1 (ARE17) or the consensus-HRE with the sequence (SEQ ID NO: 5) 5′-[…]-3′ (ARE). All other components were respectively the same. Copies of the ARE17 were introduced upstream from the TK minimal promoter and the luciferase gene in the pGL3-basic vector (FIG. 1). PC-3/AR cells, which already express the androgen receptor in a stable manner, were saturated in RPMI1640/10% cFS/L-glutamine for 18-24 hours and then transformed for five hours with 100 ng of reporter plasmid and the Fu-gene transfection reagent (Boehringer Mannheim). Then, the medium was replaced by RPM1640/5% cFCS/L-glutamine, and the activity of the reporter gene measured 42 hours later.
(§2) Four copies of the elements were introduced upstream from the TK minimal promoter and the luciferase gene in the pGL3-basic vector (FIG. 1) and transformed in the PC-3/AR-cells, which already express the androgen receptor in a stable manner, as described above. The stimulation was carried out with the synthetic androgen R1881 (10^−9M or 10^−7M final concentration).

androgen receptor [2] = biological target: T1, androgen receptor; test: consensus-HRE (ARE) luciferase reporter test system in PC-3/AR cells; type: cell-based
Text: as §1, §2

For `C[C@]1(O)CC[C@H]2[C@@H]3CCC4=CC(=O)CCC4=C3C=C[C@@]21C` [R1881], the “induction of the luciferase activity” value (androgen receptor [1]; 2 copies of ARE17, TK minimal promoter, PC-3/AR cells, androgen receptor expression vector) was 10.5 fold, the “induction of the luciferase activity compared between ARE17, consensus-HRE and IDR17” value (androgen receptor [1]; 4 copies of ARE17, R1881 10^-9 M or 10^-7 M) was “strongest induction” and the “increase of the luciferase activity” value (androgen receptor [1]; 4 copies of ARE17, TK minimal promoter, PC-3/AR cells) was 46 fold. The “difference in stimulation between the two R1881 concentrations” value (androgen receptor [1]; 4 copies, 10^-9 M versus 10^-7 M final concentration) was “No decisive difference”, the “induction of the luciferase activity (in words)” value (androgen receptor [1]; ARE17, R1881 10^-7 M, measured 42 hours later) was “very strong induction” and the “induction of the luciferase activity compared between ARE17, consensus-HRE and IDR17” value (androgen receptor [2]; 4 copies of consensus-HRE, R1881 10^-9 M or 10^-7 M) was “weakest stimulation”.
`CC(C)(O)C(=O)Nc1ccc([N+](=O)[O-])c(C(F)(F)F)c1` [hydroxyflutamide] was tested, and the “stimulation of ARE17 in the absence of an androgen” value (androgen receptor [1]; 4 copies, no androgen) was “stimulated neither” and the “stimulation of the consensus-HRE in the absence of an androgen” value (androgen receptor [2]; 4 copies, no androgen) was “stimulated neither”.
